# According to patent US20260199371A1, “COORDINATION COMPOUND, COMPOSITIONS, AND USES THEREOF FOR TREATING CANCERS” (HUEIYUAN BIOTECH LLC, priority 2023, published 2026):
# Assays:
# LoVo-OXAR cells [1] = conditions: single agent: compound (II) 2000 μg/ml or oxaliplatin 50 μg/ml, 72 hours
# LoVo-parental cells [2] = tested on: LoVo-parental cells
# LoVo-parental cells [3] = conditions: single agent: compound (II) 500 μg/ml or oxaliplatin 50 μg/ml, 72 hours
# LoVo-OXAR cells [4] = conditions: single agent: compound (II) 2000 μg/ml or oxaliplatin 50 μg/ml, 48 hours
# LoVo-OXAR cells [5] = tested on: LoVo-OXAR cells
# LoVo-parental cells [6] = conditions: single agent: compound (II) 500 μg/ml or oxaliplatin 50 μg/ml, 48 hours
structure (smiles),measurement,setting,value
"O=C1[O][Pt]2([NH][C@@H]3CCCC[C@H]3[NH]2)[O]C1=O [oxaliplatin, reference compound]",invasion rate of LoVo-OXAR cells,LoVo-OXAR cells [1],significantly decreased
same,viability of LoVo-parental cells under oxaliplatin,LoVo-parental cells [2]; FIG. 2C,decreased the viability of both LoVo-parental and LoVo-OXAR cells in a dose-dependent manner
same,IC50 of oxaliplatin in LoVo-parental cells,LoVo-parental cells [2]; MTT assay,about 15.0 μg/ml
same,invasion rate of LoVo-parental cells,LoVo-parental cells [3],significantly decreased
same,migration rate of LoVo-OXAR cells,LoVo-OXAR cells [4],significantly decreased
same,viability of LoVo-OXAR cells under oxaliplatin,LoVo-OXAR cells [5]; FIG. 2C,decreased the viability of both LoVo-parental and LoVo-OXAR cells in a dose-dependent manner
same,IC50 of oxaliplatin in LoVo-OXAR cells,LoVo-OXAR cells [5]; MTT assay,about 65 μg/ml
same,migration rate of LoVo-parental cells,LoVo-parental cells [6],significantly decreased
